Patent publication US8501433B2, “Solvent for chromogenic substrate solution” (Pierce Biotechnology, Inc., priority 2002, dated 2013)

Assay: Dissolution of X-gal (and antibiotics) in non-toxic solvents
Assay type: physicochemical
Details: non-toxic solvent solutions of the invention
Procedure: A combination of essential oil was extracted with chloroform in order to remove part of the oil phase, and create a semi-precipitated emulsion. For example, 20 ml of citrus extract, pine terpenoids, limonene oils and linseed oil was mixed with 20 ml of Chloroform by vigorously shaking in a 50 ml falcon tube. The resulting mix was let stand for approximately one day, and then the upper phase was transferred to a 15 ml falcon tube.
With CN(C)[C@@H]1C(=O)C(C(N)=O)=C(O)[C@@]2(O)C(=O)C3=C(O)c4c(O)cccc4[C@@](C)(O)[C@H]3C[C@@H]12 [Tetracyclin] the “dissolution in the same solutions as X-gal” value (“dissolution” below) was “stable dissolution”.
With O=C(N[C@H](CO)[C@H](O)c1ccc([N+](=O)[O-])cc1)C(Cl)Cl [Chloramphenicol] the “dissolution” value was “stable dissolution”.
For CC1(C)S[C@@H]2[C@H](NC(=O)[C@H](N)c3ccccc3)C(=O)N2[C@H]1C(=O)O [Ampicillin], the “dissolution” value was “stable dissolution”.
